Our source for the solubility in water and solubility values is patent US12311025B2, “Formulations for eye treatments” (Avedro, Inc., priority 2017, dated 2025).

The conditions of data set [1]: cited from earlier work.
Data set [2] in a line: Solubility of FMN in co-solvents. The note with it: organic solvent or mixture. In kind it is physicochemical. The text has this: Other penetration-enhancing agents may include a non-ionic co-solvent as a tonicity agent in a formulation. Tonicity agents that are sufficiently low in MW can readily diffuse into the tissues. The therapeutic agent having good solubility in the co-solvent can experience enhanced delivery through the epithelium and into the stroma. Propylene glycol may be a penetration enhancer for topical formulations by this mechanism of action. Thus, the one or more therapeutic formulations 304 may include one or more co-solvents as tonicity agents 304c. A list of co-solvents that may be used to increase therapeutic agent delivery via this mechanism of action and suitable for ophthalmic use are shown in TABLE 2.
Both propylene glycol and glycerin may be employed as ingredients in dry eye drops. Glycerin has been evaluated for therapeutic agent delivery into the eye and is capable of penetrating the cornea. For instance, FMN has solubility in propylene glycol and glycerin that is greater than the total concentration in the formulation. As the co-solvent penetrates the tissues, it may carry some FMN into the tissues as well enhancing the delivery. Replacing the sodium chloride with glycerin or propylene glycol should not negatively impact therapeutic agent delivery of the FMN.

Converted amounts (≈) assume the structure as drawn.

As for `CC1CCC(C(C)C)C(O)C1` (stereo not shown) [menthol], the solubility in water in data set [1] is recorded as 0.04%.
In general, solubility refers to the concentration that dissolves in the medium under given conditions. Take `Cc1cc2nc3c(=O)[nH]c(=O)nc-3n(C[C@H](O)[C@H](O)[C@H](O)COP(=O)(O)O)c2cc1C` [FMN, riboflavin-5′-phosphate]: the solubility stood at 80 µg/mL (≈ 0.175 mM) in data set [2] (in ethanol), 8900 µg/mL (≈ 19.5 mM) in data set [2] (in glycerin) and 5700 µg/mL (≈ 12.5 mM) in data set [2] (in propylene glycol).
